Article PMC11091968, “Degradation of the α-Carboxyl Terminus 11 Peptide: In Vivo and Ex Vivo Impacts of Time, Temperature, Inhibitors, and Gender in Rat” (ACS Pharmacology & Translational Science, 2024)
Counter-ions that a name gives are not always drawn. Like-named read-outs stand apart in the source and are kept apart here. One block for each compound: values may come before it. Residues, ends and D or L forms follow the SMILES beside them. *: point of attachment. Biotin = O=C1N[C@H]2[C@H](CS[C@H]2CCCCC(=O)*)N1; Ahx = NCCCCCC(=O)O

Experiments:
phosphatidylserine = details: cited from earlier work
Excerpt: (§1) page 5: S-5 Table S4. Protease and phosphatase inhibitor cocktail and their major targets. Abbreviations: AEBSF: 4-(2-aminoethyl) benzenesulfonyl fluoride hydrochloride; ATPase: adenosine 5′ -triphosphatase; E-64: L-trans-3-carboxyoxiran-2-carbonyl-L-leucylagmatine; IC 50: half maximal inhibitory concentration;; Ki: inhibitory constant; MW: molecular weight; N/A: not applicable; PP1 or 2A: protein ph osphatase 1 or 2A; PTP: protein tyrosine phosphatase; K293: human embryonic kidney cell line; HS596: human HS683 glioma cell line; SKN695: human SK-N-SH neuroblastoma cell line. Ingredient MW (Da ...

K293 cells = details: tested on K293 cells (human embryonic kidney cell line); ref 1-3 (Table S4); cited from earlier work
Excerpt: as §1

HS596 cells = details: tested on HS596 cells (human HS683 glioma cell line); ref 1-3 (Table S4); cited from earlier work
Excerpt: as §1

SKN695 cells = details: tested on SKN695 cells (human SK-N-SH neuroblastoma cell line); ref 1-3 (Table S4); cited from earlier work
Excerpt: as §1

[1] = biological target: lysosomal and prostatic acid phosphatases; details: against lysosomal and prostatic acid phosphatases; 21 (Table S4); cited from earlier work
Excerpt: as §1

Aspartic proteases = details: enzyme not given; 11 (Table S4); cited from earlier work
Excerpt: as §1

human cathepsin D = system: human cathepsin D; parameters: method as in earlier work; details: against human cathepsin D; 11 (Table S4); cited from earlier work
Excerpt: as §1, with “line.” for “line. Ingredient MW (Da ...”

papain = details: against papain; 8 (Table S4); cited from earlier work
Excerpt: as §1

[2] = Storage stability at 4 °C of plasma samples prepared for mass spectrum analysis; type: physicochemical; details: mass spectrum samples from male rat plasma
Procedure: Plasma samples collected from either in vivo (see the In Vivo “Pharmacokinetic” Analysis of αCT11 section) or ex vivo (see the Ex Vivo Degradation Analysis of αCT11 in Rat Plasma section) groups were processed in the same way outlined here, according to the modified protocol from a previous publication.[36] Briefly, 100 μL of plasma was added to a 0.5 mL low-adhesion microcentrifuge tube containing 4% FA in 200 μL of ACN [see Table S1]. The tubes were slightly (∼1 min) vortexed and centrifuged for 5 min at 11,332g using an Eppendorf Centrifuge 5424R (Eppendorf North America, Framingham, MA) to recover the supernatants. 100 μL of the supernatant was then combined with 100 μL of deionized H2O in 2 mL amber autovials with a low-volume insert and capped. The samples were either stored at 4 °C up to 4 weeks (see the Results section) or analyzed immediately using a Waters H-Class UPLC mass spectrometer (Milford, MA) and its accompanying MassLynx software, version 4.2 (Milford, MA). […]
Following the initial measurements at Week 0 (i.e., Day 0 when fresh plasma was isolated and αCT11 concentrations were measured at 0 min at 22 °C and 37 °C), the same samples used in each conduction were stored at 4 °C for 1 week (A), 4 weeks (B), or 6 weeks (C) before being used again to measure the peptide concentrations. […]

[3] = Ex vivo degradation of αCT11 in isolated rat plasma; type: in vitro ADME; details: for remaining at 5 min, 100 μM: 100 μM αCT11, 5 min
Excerpt: A third group of rats (including both males and females) was not subjected to either MI or the tail vein injection of αCT11. Instead, after injection of heparin (300 U/mL blood, the total units of heparin were estimated from body weight of each rat), as much blood as possible was collected under deep anesthesia via a cardiac puncture with a 21G needle connected to a syringe containing heparin. Blood was then transferred into an anticlotting tube on ice, followed by plasma separation as described above. All plasma collected from either males or females were randomly sorted into 4 groups (G) per gender [G1: 22 °C; G2: 37 °C, G3: 22 °C + inhibitor cocktail and G4: 37 °C + inhibitor cocktail] and incubated at 22 °C [in an Eppendorf thermomixer (Eppendorf North America, Framingham, MA)] or at 37 °C [in a digital dry bath (Benchmark, Sayreville, NJ)] with or without additions of αCT11 (at a final concentration of 100 μM in each tube) in the presence or absence of a PTase/PPTase inhibitor cocktail (at a final concentration of 1.5× of the original concentration). It took less than ∼30 s for the 22 °C groups to reach 22 °C and ∼75 s for the 37 °C groups to reach 37 °C. […], 100 μL of plasma was taken in triplicate from the tube of each animal at 0, 5, 30, and 60 min following additions of αCT11 and the cocktail inhibitors (if applied). The collected samples were then transferred to new tubes for further preparation prior to LC/MS-MS analysis.
Plasma samples collected from either in vivo (see the In Vivo “Pharmacokinetic” Analysis of αCT11 section) or ex vivo (see the Ex Vivo Degradation Analysis of αCT11 in Rat Plasma section) groups were processed in the same way outlined here, according to the modified protocol from a previous publication.[36] Briefly, 100 μL of plasma was added to a 0.5 mL low-adhesion microcentrifuge tube containing 4% FA in 200 μL of ACN [see Table S1]. The tubes were slightly (∼1 min) vortexed and centrifuged for 5 min at 11,332g using an Eppendorf Centrifuge 5424R (Eppendorf North America, Framingham, MA) to recover the supernatants. 100 μL of the supernatant was then combined with 100 μL of deionized H2O in 2 mL amber autovials with a low-volume insert and capped. The samples were either stored at 4 °C up to 4 weeks (see the Results section) or analyzed immediately using a Waters H-Class UPLC mass spectrometer (Milford, MA) and its accompanying MassLynx software, version 4.2 (Milford, MA).
For measurement, the sample extracts were first separated chromatographically with an HSS T3 column and matching VanGurd column at 40 °C. A 4 μL sample was injected onto the column using a refrigerated autosampler at 5 °C. Mobile phase A was comprised of 1% FA in H2O and mobile phase B was comprised of 1% FA in ACN (Table S1). The mobile phase was delivered to the column at a flow rate of 0.4 mL/min. Tuning was performed on each analyte by direct infusion of a standard solution (0.1 ng/μL) at a rate of 10 μL/min. The parent and production transitions for αCT11 peptide are shown in Table S2, while the mass spectrometry parameters used for detecting αCT11 are listed in Table S3.
Data were collected at 0 min in triplicate from each group using LC/MS-MS and were first calibrated as 100%; all other data from the same group were then normalized as % change over the data at 0 min. A Student’s t-test was used for comparison of 2 groups, while 1- or 2-way ANOVA followed by Tukey’s test was used for comparisons of ≥3 groups with 1 or 2 factors. All data were expressed as mean ± standard error (SE), if not otherwise specified, with p < 0.05 considered statistically significant. Data were analyzed and plotted using GraphPad Prism 9.3.1 (San Diego, CA) and Microsoft 2019 MS Excel (Redmond, WA).

[4] = In vivo "pharmacokinetic" analysis of αCT11 in plasma after tail vein injection; parameters: species or system rat; details: tail vein injection to 100 μM in blood, LC-MS/MS, n = 3
Procedure: A second group of rats (only male) was not subjected to MI but injected (via the tail vein) with the same concentration of αCT11 as described in the Rat Model of I/R MI and Tail Vein Injection of αCT11 section. After injection, about 250–350 μL of blood was withdrawn at 1, 5, and 10 min following administration and transferred into an anticlotting tube containing heparin. Plasma was then separated at 4 °C and 2000g for 10 min using an Eppendorf Centrifuge 5810R (Eppendorf North America, Framingham, MA) and stored at −80 °C or used immediately for liquid chromatography tandem mass spectrometry (LC/MS-MS; described in the Prepreparation and Measurements of Plasma Containing αCT11 for LC/MS-MS Analysis section).
Plasma samples collected from either in vivo (see the In Vivo “Pharmacokinetic” Analysis of αCT11 section) or ex vivo (see the Ex Vivo Degradation Analysis of αCT11 in Rat Plasma section) groups were processed in the same way outlined here, according to the modified protocol from a previous publication.[36] Briefly, 100 μL of plasma was added to a 0.5 mL low-adhesion microcentrifuge tube containing 4% FA in 200 μL of ACN [see Table S1]. […] The samples were either stored at 4 °C up to 4 weeks (see the Results section) or analyzed immediately using a Waters H-Class UPLC mass spectrometer (Milford, MA) and its accompanying MassLynx software, version 4.2 (Milford, MA). […]

[5] = system: serine/threonine protein phosphatases; details: against serine/threonine protein phosphatases; 14 (Table S4); cited from earlier work
Excerpt: as §1

[6] = system: serine/threonine protein phosphatases 2A; details: against serine/threonine protein phosphatases 2A; 14 (Table S4); cited from earlier work
Excerpt: as §1

trypsin = details: against trypsin; 10 (Table S4); cited from earlier work
Excerpt: as §1

plasmin = details: against plasmin; 10 (Table S4); cited from earlier work
Excerpt: as §1

Compound: [Na+].[Na+].[Na+].[O]=[V]([O-])([O-])[O-] [Sodium orthovanadate]
IC50 (phosphatidylserine): 100 µM

Compound: NCCc1ccc(S(=O)(=O)F)cc1 [AEBSF, 4-(2-aminoethyl) benzenesulfonyl fluoride hydrochloride]
IC50 (K293 cells): 1000 µM | IC50 (HS596 cells): 300 µM | IC50 (SKN695 cells): 300 µM

Compound: O=C([O-])C(O)C(O)C(=O)[O-].[Na+].[Na+] (centres unmarked) [Sodium tartrate]
Ki [1]: 1 µM

Compound: Pepstatin A
Ki (Aspartic proteases): 0.01 nM | IC50 (human cathepsin D): 0.021 µM

Compound: CC(C)C[C@H](NC(=O)[C@H]1O[C@@H]1C(=O)O)C(=O)NCCCCN=C(N)N (relative stereo) [E-64, L-trans-3-carboxyoxiran-2-carbonyl-L-leucylagmatine]
Ki (papain): 0.009 µM

storage time at 4 °C without significant degradation of αCT11 [2]: up to 4 weeks | remaining at 5 min, 100 μM ([3]; isolated heparinised female rat plasma, 22 °C, with 1.5× PTase/PPTase inhibitor cocktail, LC-MS/MS, mean ± SE, n = 3 rats, read-out: percentage of αCT11 (normalized to 0 min)): 80.9 ± 3.7% | remaining at 1 h, 100 μM ([3]; isolated heparinised female rat plasma, 22 °C, with 1.5× PTase/PPTase inhibitor cocktail, 100 μM αCT11, 60 min, LC-MS/MS, mean ± SE, n = 3 rats, read-out: percentage of αCT11 (normalized to 0 min)): 13.2 ± 3.3% | remaining at 5 min, 100 μM ([3]; isolated heparinised female rat plasma, 37 °C, no inhibitors, LC-MS/MS, mean ± SE, n = 3 rats (9 replicates), read-out: αCT11 level, % of starting concentration (0 min)): 51.4 ± 3.5% | αCT11 level, % of starting concentration (0 min) ([3]; isolated heparinised female rat plasma, 37 °C, no inhibitors, 100 μM αCT11, 30 min, LC-MS/MS, mean ± SE, n = 3 rats (9 replicates)): 1.6 ± 0.6% | remaining at 1 h, 100 μM ([3]; isolated heparinised female rat plasma, 37 °C, no inhibitors, 100 μM αCT11, 60 min, LC-MS/MS, mean ± SE, n = 3 rats (9 replicates), read-out: αCT11 level, % of starting concentration (0 min)): 0.1 ± 0.03% | remaining at 0.5 h, 100 μM ([3]; isolated heparinised male rat plasma, 22 °C, with 1.5× PTase/PPTase inhibitor cocktail, 100 μM αCT11, 30 min, LC-MS/MS, mean ± SE, n = 3 rats, read-out: percentage of αCT11 (normalized to 0 min)): 41.6 ± 3.3% | remaining at 1 h, 100 μM ([3]; isolated heparinised male rat plasma, 22 °C, with 1.5× PTase/PPTase inhibitor cocktail, 100 μM αCT11, 60 min, LC-MS/MS, mean ± SE, n = 3 rats, read-out: percentage of αCT11 (normalized to 0 min)): 19.1 ± 2.7% | remaining at 5 min, 100 μM ([3]; isolated heparinised male rat plasma, 37 °C, no inhibitors, LC-MS/MS, mean ± SE, n = 3 rats (9 replicates), read-out: αCT11 level, % of starting concentration (0 min)): 61.9 ± 5.7% | remaining at 0.5 h, 100 μM ([3]; isolated heparinised male rat plasma, 37 °C, no inhibitors, 100 μM αCT11, 30 min, LC-MS/MS, mean ± SE, n = 3 rats (9 replicates), read-out: αCT11 level, % of starting concentration (0 min)): 1.5 ± 1.2% | remaining at 1 h, 100 μM ([3]; isolated heparinised male rat plasma, 37 °C, no inhibitors, 100 μM αCT11, 60 min, LC-MS/MS, mean ± SE, n = 3 rats (9 replicates), read-out: αCT11 level, % of starting concentration (0 min)): 0.04 ± 0.06% | αCT11 in isolated plasma by 30 min ([3]; isolated rat plasma, 22 and 37 °C, no inhibitors, 30 min, LC-MS/MS): nearly undetectable | αCT11 concentrations, male vs female rat plasma ([3]; isolated rat plasma, 22 or 37 °C, absence and presence of 1.5× inhibitors, any time point (0, 5, 30, 60 min), LC-MS/MS, n = 3): no significant differences | αCT11 in ex vivo plasma at 60 min ([3]; isolated rat plasma, males and females, 22 °C, no inhibitors, 100 μM αCT11, 60 min, LC-MS/MS): almost undetectable | time for αCT11 concentration to decrease to 50% in ex vivo plasma ([3]; isolated rat plasma, males and females, 22 °C, no inhibitors, 100 μM αCT11, LC-MS/MS): about 10 min | reduction of the initial αCT11 concentration in plasma ([4]; male rats without MI, about 5 min postinjection): ~53% | αCT11 in blood plasma 10 min after tail vein injection ([4]; male rats, 10 min postinjection): almost undetectable
Compound: CC[C@H](C)[C@H](NC(=O)[C@H](CCC(=O)O)NC(=O)[C@H](CC(C)C)NC(=O)[C@H](CC(=O)O)NC(=O)[C@H](CC(=O)O)NC(=O)[C@@H]1CCCN1C(=O)[C@H](CCCNC(=N)N)NC(=O)[C@@H]1CCCN1C(=O)[C@H](CCCNC(=N)N)NC(=O)CCCCCNC(=O)CCCC[C@@H]1SC[C@@H]2NC(=O)N[C@@H]21)C(=O)O [αCT11] ({Biotin-Ahx}-RPRPDDLEI-OH)

Compound: C[C@@]12C(=O)OC(=O)[C@]1(C)[C@H]1CC[C@@H]2O1 [Cantharidin]
IC50 [5]: 0.47 µM | IC50 [6]: 0.04 µM

Compound: Leupeptin
Ki (trypsin): 0.0035 µM | Ki (plasmin): 0.0034 µM
